Patent US9179694B2, “Method and composition for enhancing milk production and milk component concentrations” (PURINA ANIMAL NUTRITION LLC, priority 2003, dated 2015)

Assay: Dry matter feed intake in sorbitol feeding trials
Format: in vivo, Holstein cows
Method: To determine the dry matter weight (or dry matter basis or dry basis) of a particular sample, the sample is first weighed. The weighed sample is then dried in an oven at a temperature that is adequate to drive off moisture from the sample without degrading the sample components, such as a temperature ranging from about 100° C. to about 110° C. The oven drying is continued until the weight of the dried sample remains constant, despite additional oven drying. During the pre-partum period, for all cows utilized in Example One or Example Two, the pre-partum control feed, as modified to include any sorbitol indicated above for the different trials, was placed in the feeding troughs of the different cows participating in the different trials once daily in the morning. Thereafter, these different pre-partum feeds (the pre-partum control feed, including any incorporated sorbitol dosage of a particular trial during the pre-partum period) of the different trials were lightly stirred, separately and individually, in front of the cows of the different trials three times per day during the pre-partum period to encourage additional feed ingestion by the cows. Leftover rations from the previous day's feeding were collected and weighed from each feeding trough during the pre-partum period, prior to feeding the test cows on a subsequent day. The cows of the different trials received a sufficient amount of the pre-partum to ensure at least about ten weight percent of the pre-partum feeds of the different trials remained in the feeding troughs of each trial each day of the pre-partum period, based on the amount of the different pre-partum feeds of the different trials provided at the beginning of each day. Feed refusals were measured daily during the pre-partum period, and water was supplied ad libitum. During the early post-partum period, for all cows utilized in Example One or Example Two, the first post-partum control feed, as modified to include any sorbitol indicated above for the different trials, was placed in the feeding troughs of the different cows participating in the different trials once daily in the morning. Thereafter, these first post-partum feeds (the first post-partum control feed, including any incorporated sorbitol dosage of a particular trial during the early post-partum period) of the different trials were lightly stirred, separately and individually, in front of the cows of the different trials three times per day during the early post-partum period to encourage additional feed ingestion by the cows. Leftover rations from the previous day's feeding were collected and weighed from each feeding trough during the early post-partum period, prior to feeding the test cows on a subsequent day. The cows of the different trials received a sufficient amount of the first post-partum feed to ensure at least about ten weight percent of the first post-partum feeds of the different trials remained in the feeding troughs of each trial each day of the early post-partum period, based on the amount of the different first post-partum feeds of the different trials provided at the beginning of each day. Feed refusals were measured daily during the early post-partum period, and water was supplied ad libitum. […] Thereafter, the second post-partum control feed were lightly stirred, separately and individually, in front of the cows of the different trials three times per day during the weeks +5 through +8 to encourage additional feed ingestion by the cows. Leftover rations from the previous day's feeding were collected and weighed from each feeding trough during weeks +5 through +8, prior to feeding the test cows on a subsequent day. […]

## OC[C@@H](O)[C@@H](O)[C@H](O)[C@@H](O)CO [sorbitol]
Pre/Post Trial #1 (150/125/100 g/day in wk −3..−1/+1..+4/+5..+8), multiparious cows, week +7, two-trial comparison with Control Trial #2 (Table 22)
  Dry Matter Feed Intake: 54.9 lbs/day
Pre/Post Trial #1 (150/125/100 g/day in wk −3..−1/+1..+4/+5..+8), multiparious cows, week +8
  Dry Matter Intake: 57.1 lbs/day
Pre/Post Trial #1 (150/125/100 g/day in wk −3..−1/+1..+4/+5..+8), multiparious cows, week +8, two-trial comparison with Control Trial #2 (Table 22)
  Dry Matter Feed Intake: 57.4 lbs/day
Pre/Post Trial #1 (150/125/100 g/day in wk −3..−1/+1..+4/+5..+8), multiparious cows, week −1
  Dry Matter Intake: 33.3 lbs/day
Pre/Post Trial #1 (150/125/100 g/day in wk −3..−1/+1..+4/+5..+8), multiparious cows, week −1, two-trial comparison with Control Trial #2 (Table 22)
  Dry Matter Feed Intake: 33.4 lbs/day
Pre/Post Trial #1 (150/125/100 g/day in wk −3..−1/+1..+4/+5..+8), multiparious cows, week −2
  Dry Matter Intake: 34.6 lbs/day
Pre/Post Trial #1 (150/125/100 g/day in wk −3..−1/+1..+4/+5..+8), multiparious cows, week −2, two-trial comparison with Control Trial #2 (Table 22)
  Dry Matter Feed Intake: 35.2 lbs/day
Pre/Post Trial #1 (150/125/100 g/day in wk −3..−1/+1..+4/+5..+8), multiparious cows, week −2 versus −1
  Change in Dry Matter Feed Intake: −1.39 lbs/day
Pre/Post Trial #1 (150/125/100 g/day in wk −3..−1/+1..+4/+5..+8), multiparious cows, week −2 versus −1, two-trial comparison with Control Trial #2 (Table 22)
  Change in Dry Matter Feed Intake: −1.83 lbs/day
Pre/Post Trial #1 (150/125/100 g/day in wk −3..−1/+1..+4/+5..+8), multiparious cows, week −3
  Dry Matter Intake: 29.6 lbs/day
Pre/Post Trial #1 (150/125/100 g/day in wk −3..−1/+1..+4/+5..+8), multiparious cows, week −3, two-trial comparison with Control Trial #2 (Table 22)
  Dry Matter Feed Intake: 30.7 lbs/day
Pre/Post Trial #1 (150/125/100 g/day in wk −3..−1/+1..+4/+5..+8), multiparious cows, weeks +1 through +4
  Dry Matter Intake: 45.4 lbs/day
Pre/Post Trial #1 (150/125/100 g/day in wk −3..−1/+1..+4/+5..+8), multiparious cows, weeks +1 through +4, two-trial comparison with Control Trial #2 (Table 22)
  Dry Matter Feed Intake: 45.7 lbs/day
Pre/Post Trial #1 (150/125/100 g/day in wk −3..−1/+1..+4/+5..+8), multiparious cows, weeks +1 through +8
  Dry Matter Intake: 50.1 lbs/day
Pre/Post Trial #1 (150/125/100 g/day in wk −3..−1/+1..+4/+5..+8), multiparious cows, weeks +1 through +8, two-trial comparison with Control Trial #2 (Table 22)
  Dry Matter Feed Intake: 50.4 lbs/day
Pre/Post Trial #1 (150/125/100 g/day in wk −3..−1/+1..+4/+5..+8), multiparious cows, weeks +5 through +8
  Dry Matter Intake: 54.9 lbs/day
Pre/Post Trial #1 (150/125/100 g/day in wk −3..−1/+1..+4/+5..+8), multiparious cows, weeks +5 through +8, two-trial comparison with Control Trial #2 (Table 22)
  Dry Matter Feed Intake: 55.3 lbs/day
Pre/Post Trial #1 (150/125/100 g/day in wk −3..−1/+1..+4/+5..+8), multiparious cows, weeks −3 through −1
  Dry Matter Intake: 32.6 lbs/day
Pre/Post Trial #1 (150/125/100 g/day in wk −3..−1/+1..+4/+5..+8), multiparious cows, weeks −3 through −1, two-trial comparison with Control Trial #2 (Table 22)
  Dry Matter Feed Intake: 33.0 lbs/day
Pre/Post Trial #1 (150/125/100 g/day) compared to Control Trial #2, multiparous cows, week −1 before calving versus week +1 after calving
  greater increase of dry matter feed intake: 3.19 pounds per day
Pre/Post Trial #1 (150/125 g/day pre-/early post-partum) versus Pre/Post Trial #2 (75/75 g/day), multiparious cows, early post-partum period (weeks +1 through +4)
  greater daily rate of dry matter feed intake: 7.6%
Pre/Post Trial #2 (75/75/100 g/day in wk −3..−1/+1..+4/+5..+8), multiparious cows, week +1
  Dry Matter Intake: 33.1 lbs/day
Pre/Post Trial #2 (75/75/100 g/day in wk −3..−1/+1..+4/+5..+8), multiparious cows, week +1 versus −1
  Change in Dry Matter Feed Intake: 0.72 lbs/day
Pre/Post Trial #2 (75/75/100 g/day in wk −3..−1/+1..+4/+5..+8), multiparious cows, week +2
  Dry Matter Intake: 41.2 lbs/day
Pre/Post Trial #2 (75/75/100 g/day in wk −3..−1/+1..+4/+5..+8), multiparious cows, week +3
  Dry Matter Intake: 45.3 lbs/day
Pre/Post Trial #2 (75/75/100 g/day in wk −3..−1/+1..+4/+5..+8), multiparious cows, week +4
  Dry Matter Intake: 49.8 lbs/day
Pre/Post Trial #2 (75/75/100 g/day in wk −3..−1/+1..+4/+5..+8), multiparious cows, week +5
  Dry Matter Intake: 53.6 lbs/day
Pre/Post Trial #2 (75/75/100 g/day in wk −3..−1/+1..+4/+5..+8), multiparious cows, week +6
  Dry Matter Intake: 54.2 lbs/day
Pre/Post Trial #2 (75/75/100 g/day in wk −3..−1/+1..+4/+5..+8), multiparious cows, week +7
  Dry Matter Intake: 53.3 lbs/day
Pre/Post Trial #2 (75/75/100 g/day in wk −3..−1/+1..+4/+5..+8), multiparious cows, week +8
  Dry Matter Intake: 55.0 lbs/day
Pre/Post Trial #2 (75/75/100 g/day in wk −3..−1/+1..+4/+5..+8), multiparious cows, week −1
  Dry Matter Intake: 32.3 lbs/day
Pre/Post Trial #2 (75/75/100 g/day in wk −3..−1/+1..+4/+5..+8), multiparious cows, week −2
  Dry Matter Intake: 36.3 lbs/day
Pre/Post Trial #2 (75/75/100 g/day in wk −3..−1/+1..+4/+5..+8), multiparious cows, week −2 versus −1
  Change in Dry Matter Feed Intake: −3.91 lbs/day
Pre/Post Trial #2 (75/75/100 g/day in wk −3..−1/+1..+4/+5..+8), multiparious cows, week −3
  Dry Matter Intake: 31.9 lbs/day
Pre/Post Trial #2 (75/75/100 g/day in wk −3..−1/+1..+4/+5..+8), multiparious cows, weeks +1 through +4
  Dry Matter Intake: 42.2 lbs/day
Pre/Post Trial #2 (75/75/100 g/day in wk −3..−1/+1..+4/+5..+8), multiparious cows, weeks +1 through +8
  Dry Matter Intake: 48.2 lbs/day
Pre/Post Trial #2 (75/75/100 g/day in wk −3..−1/+1..+4/+5..+8), multiparious cows, weeks +5 through +8
  Dry Matter Intake: 54.1 lbs/day
Pre/Post Trial #2 (75/75/100 g/day in wk −3..−1/+1..+4/+5..+8), multiparious cows, weeks −3 through −1
  Dry Matter Intake: 33.2 lbs/day
Average of means of Pre-Partum Trial #2, Pre/Post Trial #1 and Pre/Post Trial #2 versus Control Trial #2, multiparious cows, pre-partum period (weeks −3 through −1)
  decrease in dry matter feed intake: 4.9%
